Experimental data published in patent publication US20230119502A1, “Collagen Nucleation Inhibitors” (Northeastern University, priority 2020, published 2023).
Converted amounts (≈) assume the structure as drawn. Where two headings read alike, the source gives them in different places.

What was measured:
[1] = biological target: T1, acetic acid-extracted bovine type I collagen (Bos taurus, UniProt P02453+P02465); format: biochemical; settings: for effect on collagen assembly: 0.5 M (each component 0.5 M for Gal with acetic acid; 0.5 M total for ratios); for effect on collagen assembly / critical concentration at which collagen assembly was completely inhibited / effect on collagen assembly kinetics and ODmax / lag time (lag phase at 30% assembly): 1 mg/mL collagen; for critical concentration at which collagen assembly was completely inhibited: 37° C., pH 7.3; for Rates of Collagen Assembly (KA), 30% to 70%: n=9, ± SD; for effect on collagen assembly kinetics and ODmax: 0.125 M; for lag time (lag phase at 30% assembly): 0.25 M total saccharide
T1 construct: acetic acid-extracted bovine type I collagen; purchased Advanced Biomatrix 5026-1 KIT
T1 sequence (P02453 162-1217 limits assumed): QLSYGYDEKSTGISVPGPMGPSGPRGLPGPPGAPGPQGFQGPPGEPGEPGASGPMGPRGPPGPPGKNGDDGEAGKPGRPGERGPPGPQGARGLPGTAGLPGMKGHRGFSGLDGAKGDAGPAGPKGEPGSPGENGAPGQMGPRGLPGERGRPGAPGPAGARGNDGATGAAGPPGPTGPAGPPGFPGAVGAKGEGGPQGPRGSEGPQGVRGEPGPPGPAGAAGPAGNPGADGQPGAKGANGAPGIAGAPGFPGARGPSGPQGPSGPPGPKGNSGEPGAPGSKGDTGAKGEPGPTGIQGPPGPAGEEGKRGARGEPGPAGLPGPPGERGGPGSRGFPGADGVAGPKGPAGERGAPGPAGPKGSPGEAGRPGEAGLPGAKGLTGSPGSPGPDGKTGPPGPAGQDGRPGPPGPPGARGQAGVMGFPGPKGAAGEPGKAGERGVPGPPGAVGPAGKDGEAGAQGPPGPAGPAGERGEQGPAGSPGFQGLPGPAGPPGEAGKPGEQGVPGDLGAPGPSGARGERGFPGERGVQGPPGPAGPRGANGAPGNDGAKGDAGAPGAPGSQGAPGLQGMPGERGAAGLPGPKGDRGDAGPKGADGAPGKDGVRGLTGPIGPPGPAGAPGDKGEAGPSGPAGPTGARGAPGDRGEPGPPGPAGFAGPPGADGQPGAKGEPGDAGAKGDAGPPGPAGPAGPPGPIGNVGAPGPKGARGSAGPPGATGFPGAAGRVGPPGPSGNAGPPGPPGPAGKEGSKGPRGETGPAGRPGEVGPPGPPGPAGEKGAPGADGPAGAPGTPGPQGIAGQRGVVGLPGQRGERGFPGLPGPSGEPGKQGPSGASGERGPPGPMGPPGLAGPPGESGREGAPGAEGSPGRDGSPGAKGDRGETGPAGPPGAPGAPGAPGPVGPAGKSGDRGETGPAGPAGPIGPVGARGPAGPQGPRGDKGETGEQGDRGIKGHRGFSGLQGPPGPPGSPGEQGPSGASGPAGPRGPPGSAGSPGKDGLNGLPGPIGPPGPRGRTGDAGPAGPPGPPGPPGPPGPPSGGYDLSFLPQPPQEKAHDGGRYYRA
T1 sequence (P02465 80-1117 limits assumed): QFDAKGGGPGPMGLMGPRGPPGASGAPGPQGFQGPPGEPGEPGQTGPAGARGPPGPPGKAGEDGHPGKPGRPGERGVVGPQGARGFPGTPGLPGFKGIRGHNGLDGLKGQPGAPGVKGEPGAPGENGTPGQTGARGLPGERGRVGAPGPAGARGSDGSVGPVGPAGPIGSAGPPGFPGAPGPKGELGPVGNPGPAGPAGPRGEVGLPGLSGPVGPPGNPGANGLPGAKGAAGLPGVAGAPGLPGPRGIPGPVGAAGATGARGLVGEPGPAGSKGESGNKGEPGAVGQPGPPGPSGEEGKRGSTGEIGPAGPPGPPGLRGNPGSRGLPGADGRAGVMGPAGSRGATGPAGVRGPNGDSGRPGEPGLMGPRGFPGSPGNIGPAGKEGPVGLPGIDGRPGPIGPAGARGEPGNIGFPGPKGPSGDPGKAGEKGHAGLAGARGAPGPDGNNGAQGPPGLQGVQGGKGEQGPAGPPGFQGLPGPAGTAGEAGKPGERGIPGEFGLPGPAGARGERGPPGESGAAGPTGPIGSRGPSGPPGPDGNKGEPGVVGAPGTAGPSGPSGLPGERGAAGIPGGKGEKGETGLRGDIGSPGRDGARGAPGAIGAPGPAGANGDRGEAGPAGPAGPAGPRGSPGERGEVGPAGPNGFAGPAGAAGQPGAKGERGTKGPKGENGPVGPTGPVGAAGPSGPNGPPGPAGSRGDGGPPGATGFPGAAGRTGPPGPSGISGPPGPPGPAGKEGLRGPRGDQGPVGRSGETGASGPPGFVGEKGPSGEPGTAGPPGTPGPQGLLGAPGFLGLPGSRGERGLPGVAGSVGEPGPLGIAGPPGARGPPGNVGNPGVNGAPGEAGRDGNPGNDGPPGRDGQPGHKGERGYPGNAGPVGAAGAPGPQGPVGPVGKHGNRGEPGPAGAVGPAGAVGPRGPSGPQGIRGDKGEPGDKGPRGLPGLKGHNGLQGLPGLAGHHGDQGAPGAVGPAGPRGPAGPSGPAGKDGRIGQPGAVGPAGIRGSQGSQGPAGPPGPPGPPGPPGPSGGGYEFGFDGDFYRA
Protocol: In the experiments below, acetic acid-extracted bovine type I collagen (Advanced Biomatrix, 5026-1 KIT) was mixed with monosaccharide solutions, and/or acetic acid, such that the final collagen concentration was either 0.5 or 1 mg/mL and final saccharide concentration ranged from 0-1 M. Concentrated Tris-buffered saline (10×TBS) at 0.25 M trizma base (Sigma Aldrich, T4661) and 1.3 M sodium chloride
(Fisher Chemical, S271-500), was used as 10% of the solution volume to maintain a physiological pH and ionic strength, and 0.25 M sodium hydroxide was used for a final pH adjustment to 7.3. Any remaining volume in the solution recipes was fulfilled via the addition of deionized water.
Experiments included mixing collagen with a concentrated monosaccharide solution, neutralizing it, and measuring turbidity spectrophotometrically (313 nm) over the course of two hours. In the absence of monosaccharides, 1 mg/mL collagen fully polymerized within minutes, as expected (Williams, B. R., et al., 1978). […] The increased ODmax caused by the monosaccharides cannot be fully attributed to the contribution of the monosaccharides in solution (Table 2) (Hayashi & Nagai, 1972; Wood & Keech, 1960).
To study the assembly of collagen, the kinetics of collagen assembly in the presence of monosaccharides were monitored using a plate-reader spectrophotometer (Molecular Devices, SpectraMax M5). Working in triplicate, 100 μL of the mixed collagen and saccharide solution was pipetted into a 96-well plate and layered with 100 μL of silicone oil to prevent evaporation. […] Each test condition was repeated three times for a total of n=9 data sets.
The analyze the assembly kinetics, turbidity assays were analyzed and normalized between 0-1 using Equation 1, where OD represents the optical density.
To analyze the kinetics, 0% assembly was defined as the absorbance value when the minimum absorbance was recorded, and 100% corresponded to the maximum value. 10, 30, 70 and 90% absorbance and corresponding timepoints were calculated using linear interpolation between the two bounding data points. Error bars were calculated as standard error of the mean. Rate of assembly was determined by calculating the slope between 30% and 70% assembly for each data set.

[2] = Baseline absorbance of the monosaccharide solutions without collagen; format: physicochemical; settings: 313 nm, 37° C., no collagen, n=3
Source text: No collagen was present in these samples.

[3] = biological target: T2, pre-existing A546-labeled collagen network (Bos taurus, UniProt P02453+P02465); assay: Dual-fluorescence incorporation of soluble collagen into a pre-existing collagen network (colocalization, PCC); format: biochemical, bovine; settings: 0.5 M GlcNAc, 0.5 M Gal or 1 M GlucA; 0.025 mg/mL collagen, 1 hour, 37° C., n=10 images
T2 construct: acetic acid-extracted bovine type I collagen; purchased Advanced Biomatrix 5026-1 KIT; host or cells: extracted from bovine tissue, then labelled in house
T2 sequence (P02453 162-1217 limits assumed): as the sequence (P02453 162-1217 limits assumed) above
T2 sequence (P02465 80-1117 limits assumed): as the sequence (P02465 80-1117 limits assumed) above
Source text: Collagen was fluorescently labeled by the following procedure. Collagen was amine-labeled with either Alexa Fluor 546 NHS Ester (Thermo Fisher Scientific, A20002) or Alexa Fluor 488 TFP (Thermo Fisher Scientific, A30005) according to the protocol of Paten et al. (Paten, J. A., et al., 2019). Collagen was labeled with A488 solution in a 5:1 molar ratio of A488:collagen and then purified using a 10,000 MWCO Slide-A-Lyzer dialysis cassette (Thermo Fisher Scientific, 66380). The same process was performed with A546 in a 5:1 molar ratio of A546:collagen. Prior to use, the collagen concentration was determined by a modified Lowry assay (Bio-Rad, DC-Protein Assay), and the labeling efficiency was determined according to previous reports (Paten, J. A., et al., 2019).
To test if the critical saccharide concentrations would allow the soluble collagen to incorporate into a pre-existing matrix, despite the observed nucleation inhibition, first a collagen network was polymerized labeled with a A546 (red) at 37° C. using the example procedure described above. Then a mixture of A488-labeled collagen (green) with a nucleation-inhibiting concentration of either GlcNAc, Gal, or GlucA was added to the pre-existing A546-labeled collagen network. In all cases, distinct fibrillar networks of A488-collagen after a 1 hour incubation and exhaustive rinsing to reduce non-specific binding was observed.
The ability for soluble collagen to incorporate into a pre-established collagen network in the presence of monosaccharides was investigated with fluorescent imaging using an inverted microscope (Nikon, ECLIPSE Ti2) with a 0.45 numerical aperture 20× objective (Nikon, MRH08230) and a CMOS camera (Andor, Zyla 4.2). […]
The Imaging and Colocalization Analysis of the Dual-Fluorescence collagen Network was conducted using the following procedure. For imaging the A546-labeled collagen network, the excitation signal (CoolLED, PE-300-W-L-SB-40) was passed through a 530±15 nm filter, and the emission signal was detected after passing through a 575±20 nm filter (Chroma Technology, 49014). […]

[4] = carboxylic acid of GlucA; cited from earlier work
[5] = Stock solutions made near maximum solubility; settings: 37 °C, pH 5, aqueous buffer
physchem = settings: 37 °C, pH 5, aqueous buffer
[6] = biological target: pre-established 1 mg/mL collagen networks (Bos taurus, UniProt P02453+P02465); settings: 37° C., 180 minutes, critical concentration
Sequence of pre-established 1 mg/mL collagen networks (P02453 162-1217 limits assumed): as the sequence (P02453 162-1217 limits assumed) above
Sequence of pre-established 1 mg/mL collagen networks (P02465 80-1117 limits assumed): as the sequence (P02465 80-1117 limits assumed) above

[7] = collagen 0.5 mg/mL, 0.25M saccharide
[8] = collagen 1 mg/mL, 0.25M saccharide
[9] = collagen 0.5 mg/mL, 0.125M saccharide
[10] = collagen 1 mg/mL, 0.125M saccharide

With `CC(=O)O` [acetic acid, reference compound] the “effect on collagen assembly” value [1] was “little impact on the early kinetics but significantly reduced the steady-state absorbance”.

For `O.O=C[C@H](O)[C@@H](O)[C@H](O)[C@H](O)C(=O)[O-].[Na+]` [GlucA, D-glucuronic acid sodium salt monohydrate], the “critical concentration at which collagen assembly was completely inhibited” value [1] was 1 M, the “Rates of Collagen Assembly (KA), 30% to 70%” value (shortened to “Rates … to 70%”) [1, 7] was 6.84 ± 0.47% per second and the “Rates … to 70%” value ([1]; collagen 0.5 mg/mL, 0.5M saccharide) was 10.69 ± 0.53% per second. The “Rates … to 70%” value [1, 8] was 13.83 ± 1.10% per second, the “Rates … to 70%” value ([1]; collagen 1 mg/mL, 0.5M saccharide) was 40.64 ± 2.59% per second and the Baseline absorbance ([2]; 0.25M saccharide) was 0.063 ± 0.000. The Baseline absorbance ([2]; 0.5M saccharide) was 0.082 ± 0.001, the Baseline absorbance ([2]; 1M saccharide) was 0.120 ± 0.000 and the “Pearson's correlation coefficient (PCC) of incorporated A488-collagen with pre-established network” value (“Pearson's correlation coefficient (PCC)” below) [3] was 0.50±0.11. The pKa [4] was 3.2 and the solubility [5] was about 2000 mM.

For `CC(=O)N[C@H]1C(O)O[C@H](CO)[C@@H](O)[C@@H]1O` (stereo partly drawn) [GlcNAc, N-acetyl-D-glucosamine], the “critical concentration at which collagen assembly was completely inhibited” value [1] was 0.5 M, the “effect on collagen assembly kinetics and ODmax” value [1] was “a delay in the lag phase and growth phase and an increase in the maximum absorbance (ODmax)” and the “lag time (lag phase at 30% assembly)” value [1] was 16 ± 2.5 min. For the same molecule, the “Rates … to 70%” value [1, 9] was 13.32 ± 0.63% per second, the “Rates … to 70%” value [1, 7] was 6.77 ± 0.31% per second and the “Rates … to 70%” value [1, 10] was 17.91 ± 1.52% per second. The “Rates … to 70%” value [1, 8] was 8.27 ± 0.54% per second, the Baseline absorbance ([2]; 0.125M saccharide) was 0.061 ± 0.001 and the Baseline absorbance ([2]; 0.25M saccharide) was 0.074 ± 0.001. For the same molecule, the Baseline absorbance ([2]; 0.5M saccharide) was 0.105 ± 0.001, the “Pearson's correlation coefficient (PCC)” value [3] was 0.66±0.10 and the solubility (physchem) was about 1000 mM (≈ 221 mg/mL).

For `O=C[C@H](O)[C@@H](O)[C@@H](O)[C@H](O)CO` [Gal, D(+)-galactose], the “critical concentration at which collagen assembly was completely inhibited” value [1] was 0.5 M, the “effect on collagen assembly kinetics and ODmax” value [1] was “a delay in the lag phase and growth phase and an increase in the maximum absorbance (ODmax)” and the “lag time (lag phase at 30% assembly)” value [1] was 15 ± 0.6 min. For the same molecule, the “effect on collagen assembly” value [1] was “completely inhibited collagen assembly”, the “Rates … to 70%” value [1, 9] was 14.28 ± 1.48% per second and the “Rates … to 70%” value [1, 7] was 7.22 ± 0.89% per second. For the same molecule, the “Rates … to 70%” value [1, 10] was 28.71 ± 1.54% per second, the “Rates … to 70%” value [1, 8] was 15.96 ± 1.39% per second and the Baseline absorbance ([2]; 0.125M saccharide) was 0.041 ± 0.001. The Baseline absorbance ([2]; 0.25M saccharide) was 0.043 ± 0.001, the Baseline absorbance ([2]; 0.5M saccharide) was 0.044 ± 0.001 and the “Pearson's correlation coefficient (PCC)” value [3] was 0.53±0.11. The “change in the collagen network under inverted microscope” value [6] was “minimal to no change” and the solubility (physchem) was about 2000 mM (≈ 360 mg/mL).
